# In patent US11753407B2, “Compounds for treating spinal muscular atrophy” (PTC Therapeutics, Inc., priority 2012, dated 2023):
# Key:
# [1] = tested on: Smn protein in SMA patient fibroblast cells (GM03813); assay: Smn protein assay in cultured cells (SMN HTRF); type: cell-based, human; conditions: SMA patient fibroblast cells, 48 hours; for maximum fold (Fold) increase of Smn protein: 7-point concentration data, fold relative to vehicle control; for EC1.5x for Smn protein expression: 7-point concentration curve, SMN HTRF, concentration producing 1.5 times Smn protein vs DMSO vehicle control
# Method in brief: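 Read-out: HTRF 665/620 nm ratio, blank-subtracted as ΔF, then expressed as fold over DMSO vehicle. Fibroblasts from SMA patients were exposed to compounds for 48 h (7 points, 3.16-fold steps, triplicates). Values are EC1.5× and maximum fold Smn increase.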
# [2] = tested on: SMN2 minigene mRNA (SMN2-A minigene) in HEK293H cells; assay: SMN2 minigene mRNA splicing RT-qPCR assay in cultured cells; type: cell-based, human; conditions: Homo sapiens, HEK293-H; concentration increasing full length SMN2 mRNA 1.5-fold relative to vehicle-treated cells; HEK293H cells with SMN2-A minigene, 24 hours, 7-point concentration data; read-out: EC1.5x for production of full length SMN2 mRNA
# Method in brief: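 Read-out: minigene-specific full-length (exon 7-included) SMN2 mRNA by one-step multiplex RT-qPCR, normalized to GAPDH and divided by vehicle-treated level. Stable SMN2-A minigene HEK293H cells, 24 h compound exposure, 7 concentrations in duplicate. EC1.5× = concentration raising FL mRNA 1.5-fold.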
SMILES,maximum fold (Fold) increase of Smn protein [1],EC (1.5-fold increase) [2] [µM],melting point,EC1.5x for Smn protein expression [1]
"O=c1cc(-c2ccccc2F)nc2ccc(N3CCNCC3)cn12 [Compound 51, 2-(2-fluorophenyl)-7-(piperazin-1-yl)-4H-pyrido[1,2-a]pyrimidin-4-one]",** (a fold increase between >1.2 and ≤1.35 is indicated by two stars (**)),3 to 30,142 to 146 °C,
"CN(C)c1ccc(-c2cc(=O)n3cc(N4CCNCC4)ccc3n2)cc1 [Compound 53, 2-[4-(dimethylamino)phenyl]-7-(piperazin-1-yl)-4H-pyrido[1,2-a]pyrimidin-4-one]",* (A maximum fold increase of ≤1.2 is indicated by one star (*)),1 to 3,211 to 215 °C,
"C[C@H]1CN(c2ccc3nc(-c4ccc(N(C)C)cc4)cc(=O)n3c2)CCN1 [Compound 54, 2-[4-(dimethylamino)phenyl]-7-[(3S)-3-methylpiperazin-1-yl]-4H-pyrido[1,2-a]pyrimidin-4-one]",* (A maximum fold increase of ≤1.2 is indicated by one star (*)),1 to 3,199 to 202 °C,
"Cc1ccc(-c2cc(=O)n3cc(N4CCNCC4)ccc3n2)cc1C [Compound 55, 2-(3,4-dimethylphenyl)-7-(piperazin-1-yl)-4H-pyrido[1,2-a]pyrimidin-4-one]",* (A maximum fold increase of ≤1.2 is indicated by one star (*)),1 to 3,186 to 188 °C,
"Cc1ccc(-c2cc(=O)n3cc(N4CCN[C@@H](C)C4)ccc3n2)cc1C [Compound 56, 2-(3,4-dimethylphenyl)-7-[(3S)-3-methylpiperazin-1-yl]-4H-pyrido[1,2-a]pyrimidin-4-one]",* (A maximum fold increase of ≤1.2 is indicated by one star (*)),1 to 3,207 to 209 °C,
"CN(C)c1cccc(-c2cc(=O)n3cc(N4CCNCC4)ccc3n2)c1 [Compound 57, 2-[3-(dimethylamino)phenyl]-7-(piperazin-1-yl)-4H-pyrido[1,2-a]pyrimidin-4-one]",* (A maximum fold increase of ≤1.2 is indicated by one star (*)),3 to 30,178 to 180 °C,
"C[C@H]1CN(c2ccc3nc(-c4cccc(N(C)C)c4)cc(=O)n3c2)CCN1 [Compound 58, 2-[3-(dimethylamino)phenyl]-7-[(3S)-3-methylpiperazin-1-yl]-4H-pyrido[1,2-a]pyrimidin-4-one]",* (A maximum fold increase of ≤1.2 is indicated by one star (*)),3 to 30,144 to 146 °C,
"O=c1cc(-c2ccc(OC(F)F)cc2)nc2ccc(N3CCNCC3)cn12 [Compound 59, 2-[4-(difluoromethoxy)phenyl]-7-(piperazin-1-yl)-4H-pyrido[1,2-a]pyrimidin-4-one]",* (A maximum fold increase of ≤1.2 is indicated by one star (*)),1 to 3,131 to 133 °C,
"C[C@H]1CN(c2ccc3nc(-c4ccc(OC(F)F)cc4)cc(=O)n3c2)CCN1 [Compound 60, 2-[4-(difluoromethoxy)phenyl]-7-[(3S)-3-methylpiperazin-1-yl]-4H-pyrido[1,2-a]pyrimidin-4-one]",* (A maximum fold increase of ≤1.2 is indicated by one star (*)),1 to 3,166 to 168 °C,
"O=c1cc(-c2cccc(F)c2)nc2ccc(N3CCNCC3)cn12 [Compound 61, 2-(3-fluorophenyl)-7-(piperazin-1-yl)-4H-pyrido[1,2-a]pyrimidin-4-one]",**** (a fold increase between >1.5 and ≤1.65 is indicated by four stars (****)),0.3 to 1,153 to 156 °C,*** (an EC1.5× between >0.3 μM and ≤1 μM is indicated by three stars (***))
"O=c1cc(-c2cccc([N+](=O)[O-])c2)nc2ccc(N3CCNCC3)cn12 [Compound 62, 2-(3-nitrophenyl)-7-(piperazin-1-yl)-4H-pyrido[1,2-a]pyrimidin-4-one]",***** (a fold increase >1.65 is indicated by five stars (*****)),0.1 to 0.3,175 °C (dec.),*** (an EC1.5× between >0.3 μM and ≤1 μM is indicated by three stars (***))
"Cc1ccc(-c2cc(=O)n3cc(N4CCNCC4)ccc3n2)cc1 [Compound 63, 2-(4-methylphenyl)-7-(piperazin-1-yl)-4H-pyrido[1,2-a]pyrimidin-4-one]",** (a fold increase between >1.2 and ≤1.35 is indicated by two stars (**)),1 to 3,192 to 195 °C,
"COc1cc(F)c(-c2cc(=O)n3cc(N4CCNCC4)ccc3n2)cc1OC [Compound 64, 2-(2-fluoro-4,5-dimethoxyphenyl)-7-(piperazin-1-yl)-4H-pyrido[1,2-a]pyrimidin-4-one]",** (a fold increase between >1.2 and ≤1.35 is indicated by two stars (**)),3 to 30,177 to 180 °C,
"COc1cc(F)c(-c2cc(=O)n3cc(N4CCN[C@@H](C)C4)ccc3n2)cc1OC [Compound 65, 2-(2-fluoro-4,5-dimethoxyphenyl)-7-[(3S)-3-methylpiperazin-1-yl]-4H-pyrido[1,2-a]pyrimidin-4-one]",** (a fold increase between >1.2 and ≤1.35 is indicated by two stars (**)),3 to 30,167 to 170 °C,
"COc1ccc(-c2cc(=O)n3cc(N4CC5CCC(C4)N5)ccc3n2)cc1OC [Compound 66, 7-(3,8-diazabicyclo[3.2.1]oct-3-yl)-2-(3,4-dimethoxyphenyl)-4H-pyrido[1,2-a]pyrimidin-4-one]",*** (a fold increase between >1.35 and ≤1.5 is indicated by three stars (***)),0.3 to 1,158 to 161 °C,* (An EC1.5× for Smn protein expression between >3 μM and ≤10 μM is indicated by one star (*))
"COc1ccc(-c2cc(=O)n3cc(N4CCNCC4)ccc3n2)cc1C(F)(F)F [Compound 67, 2-[4-methoxy-3-(trifluoromethyl)phenyl]-7-(piperazin-1-yl)-4H-pyrido[1,2-a]pyrimidin-4-one]",*** (a fold increase between >1.35 and ≤1.5 is indicated by three stars (***)),0.1 to 0.3,177 to 181 °C,*** (an EC1.5× between >0.3 μM and ≤1 μM is indicated by three stars (***))
"COc1ccc(-c2cc(=O)n3cc(N4CCN[C@H](C)C4)ccc3n2)cc1C(F)(F)F [Compound 68, 2-[4-methoxy-3-(trifluoromethyl)phenyl]-7-[(3R)-3-methylpiperazin-1-yl]-4H-pyrido[1,2-a]pyrimidin-4-one]",** (a fold increase between >1.2 and ≤1.35 is indicated by two stars (**)),0.1 to 0.3,205 to 212 °C,
"COc1ccc(-c2cc(=O)n3cc(N4CCN[C@@H](C)C4)ccc3n2)cc1C(F)(F)F [Compound 69, 2-[4-methoxy-3-(trifluoromethyl)phenyl]-7-[(3S)-3-methylpiperazin-1-yl]-4H-pyrido[1,2-a]pyrimidin-4-one]",**** (a fold increase between >1.5 and ≤1.65 is indicated by four stars (****)),0.3 to 1,195 to 200 °C,*** (an EC1.5× between >0.3 μM and ≤1 μM is indicated by three stars (***))
"N#Cc1ccc(-c2cc(=O)n3cc(N4CCNCC4)ccc3n2)cc1 [Compound 73, 4-[4-oxo-7-(piperazin-1-yl)-4H-pyrido[1,2-a]pyrimidin-2-yl]benzonitrile]",** (a fold increase between >1.2 and ≤1.35 is indicated by two stars (**)),3 to 30,146 to 151 °C,
"Cc1cn2cc(-c3cc(=O)n4cc(N5CCN[C@@H](C)C5)ccc4n3)nc2cn1 [Compound 75, 2-(6-methylimidazo[1,2-a]pyrazin-2-yl)-7-[(3S)-3-methylpiperazin-1-yl]-4H-pyrido[1,2-a]pyrimidin-4-one]",***** (a fold increase >1.65 is indicated by five stars (*****)),< 0.1,235 to 238 °C,**** (an EC1.5x≤0.3 μM is indicated by four stars (****))
"O=c1cc(-c2ccc(F)c(C(F)(F)F)c2)nc2ccc(N3CCNCC3)cn12 [Compound 77, 2-[4-fluoro-3-(trifluoromethyl)phenyl]-7-(piperazin-1-yl)-4H-pyrido[1,2-a]pyrimidin-4-one]",** (a fold increase between >1.2 and ≤1.35 is indicated by two stars (**)),0.3 to 1,214 to 217 °C,
"COc1c(-c2cc(=O)n3cc(N4CCNCC4)ccc3n2)cccc1C(F)(F)F [Compound 78, 2-[2-methoxy-3-(trifluoromethyl)phenyl]-7-(piperazin-1-yl)-4H-pyrido[1,2-a]pyrimidin-4-one]",* (A maximum fold increase of ≤1.2 is indicated by one star (*)),1 to 3,194 to 200 °C,
